Results on 20 compounds are retold here after US9822069B2, “Urea derivative or pharmacologically acceptable salt thereof” (KYORIN PHARMACEUTICAL CO. LTD., priority 2013, dated 2017).

Broadly, the pEC50 is the negative decadic logarithm of the EC50, by convention in mol/L.

pEC50: −log10 of the molar value.

This assay addresses T1, human FPRL1 (Homo sapiens, UniProt P25090).
T1 construct: expressed in transfected cells; host or cells: HEK293 (JCRB9068, NIBIO), transient transfection with pCMV-script vectors using Lipofectamine 2000
T1 sequence (P25090 1-351): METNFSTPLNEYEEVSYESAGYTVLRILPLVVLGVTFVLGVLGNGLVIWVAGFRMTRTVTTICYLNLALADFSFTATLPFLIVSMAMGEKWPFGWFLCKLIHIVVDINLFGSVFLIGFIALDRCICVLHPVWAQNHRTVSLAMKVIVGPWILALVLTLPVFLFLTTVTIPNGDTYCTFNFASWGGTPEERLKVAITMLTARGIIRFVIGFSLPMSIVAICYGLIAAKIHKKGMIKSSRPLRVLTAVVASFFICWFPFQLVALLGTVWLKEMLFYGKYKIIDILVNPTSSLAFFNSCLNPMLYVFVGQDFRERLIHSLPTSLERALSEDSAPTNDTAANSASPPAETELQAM
Kind of assay: Measurement test of agonist activity on human FPRL1 (test of calcium mobilization in cell, HEK293 with human FPRL1 and Gα15 expression vectors). The class given is cell-based. The note with it: calcium mobilization in HEK293 cells with human FPRL1 and Gα15 expression vectors. An excerpt: Measurement Test of Agonist Activity on Human FPRL1
(1-1) Construction of Human FPRL1 Expression Vector
Human FPRL (SEQ ID NO: 3) was amplified in a PCR reaction from cDNA derived from a monocytic leukemia cell line THP-1 (TIB-202, ATCC) as a template using a forward primer shown in SEQ ID NO: 1, a reverse primer shown in SEQ ID NO: 2, and KOD-plus-ver. 2 (KOD-211, TOYOBO CO., LTD.). The amplified PCR product and pCMV-script vector (212220, STRATAGENE) were digested with Hind III (1060A, Takara Bio Inc.) and XhoI (1094A, Takara Bio Inc.), and the resultant digest was ligated with Ligation high ver. 2 (LGK-201, TOYOBO CO., LTD.). The ligation product was transformed into DH5α (DNA-901, TOYOBO CO., LTD.), cultured on a 100 μg/mL kanamycin-containing LB medium, and purified with HiSpeed Plasmid Maxi Kit (12662, QIAGEN).
(1-2) Construction of Human Gα15 Expression Vector
Human Gα15 (SEQ ID NO: 6) was amplified in a PCR reaction from cDNA derived from a myeloid leukemia cell line HL-60 (CCL-240, ATCC) as a template using a forward primer shown in SEQ ID NO: 4, a reverse primer shown in SEQ ID NO: 5, and KOD-plus-ver. 2. The amplified PCR product and pCMV-script vector were digested with Hind III and XhoI, and the resultant digest was ligated with Ligation high ver. 2. The ligation product was transformed into DH5α, cultured on a 100 μg/mL kanamycin-containing LB medium, and purified with HiSpeed Plasmid Maxi Kit.
(2-1) Method for Culturing and Subculturing HEK293
HEK293 (JCRB9068, NIBIO) was cultured in an incubator at 5% CO2 and 37° C. using DMEM (11885-092, GIBCO) containing 10% FBS and 1× Penicillin-Streptomycin (15140-122, GIBCO). Subculture was carried out as followings: The cells that reached 80 to 90% confluency were washed with PBS(−), separated using 0.25% Trypsin-EDTA (25200-072, GIBCO), centrifuged, re-suspended in a fresh medium, and then seeded in Collagen Type 1 Coated dish (4020-010, IWAKI) at a split ratio of 1:8 (cultured for 3 days).
(2-2) Introduction of Human FPRL1 and Gα15 Expression Vectors
HEK293 that reached 80 to 90% confluency was washed with PBS(−), separated using 0.25% Trypsin-EDTA, centrifuged, and re-suspended in a fresh medium excluding 1× Penicillin-Streptomycin. The cells were inoculated in a Collagen Type 1 coated 6-well plate (4810-010, IWAKI) to 5×10^5 cells/2.5 mL/well and cultured overnight. On the next day, human FPRL1 and Gα15 expression vectors were introduced using Lipofectamine 2000 transfection reagent (11668-019, Life technologies). First, the human FPRL1 and Gα15 expression vectors were diluted with Opti-MEM I Reduced Serum Medium (31985-070, GIBCO) to 2 μg/250 μL/well and Lipofectamine 2000 transfection reagent was diluted with Opti-MEM I Reduced Serum Medium to be 4 μL/250 μL/well. The vectors and reagent were softly diffused, and incubated at room temperature for 5 minutes. The vector solution was mixed with Lipofectamine 2000 transfection reagent in equal amounts. In order to form a composite of the vectors and Lipofectamine 2000 transfection reagent, the mixture was incubated at room temperature for 20 minutes, and added at 500 μL/well to the medium of inoculated cells. The treated cells were cultured for 24 hours, inoculated in Poly-D-Lysine coated 96-well plate (356640, BD Biosciences) at a cell density of 7×10^4 cells/100 μL/well, and cultured for another 24 hours. The resultant cells were used in a measurement test of calcium mobilization in the cells.
(3) Evaluation of Agonist Activity on Human FPRL1 (Test of Calcium Mobilization in Cell)
An appropriate amount of each test compound was first weighed, and dissolved to 10^−2 M by addition of dimethyl sulfoxide (DMSO). […]
(Calcium assays in cells follow changes in intracellular calcium, usually with a dye or a luminescent sensor.)
With `COc1cc(F)c([C@@H]2CNC(=O)[C@H]2NC(=O)Nc2ccc(Oc3ccccc3)cc2)c(F)c1` (relative stereo) [Example 7-7, (−)-1-[(3S*,4R*)-4-(2,6-difluoro-4-methoxyphenyl)-2-oxopyrrolidin-3-yl]-3-(4-phenoxyphenyl)urea], the negative logarithm of the EC50 (pEC50) is 8.81.
For `COc1cc(F)c([C@@H]2CNC(=O)[C@H]2NC(=O)Nc2cccc(F)c2)c(F)c1` (relative stereo) [Example 7-8, (−)-1-[(3S*,4R*)-4-(2,6-difluoro-4-methoxyphenyl)-2-oxopyrrolidin-3-yl]-3-(3-fluorophenyl)urea] the value was 9.02; for `COc1cc(F)c([C@@H]2CNC(=O)[C@H]2NC(=O)Nc2ccc(F)c(F)c2)c(F)c1` (relative stereo) [Example 7-9, (−)-1-[(3S*,4R*)-4-(2,6-difluoro-4-methoxyphenyl)-2-oxopyrrolidin-3-yl]-3-(3,4-difluorophenyl)urea], 9.80; for `CCc1ccc(NC(=O)N[C@@H]2C(=O)NC[C@H]2c2c(F)cc(OC)cc2F)cc1` (relative stereo) [Example 7-10, (−)-1-[(3S*,4R*)-4-(2,6-difluoro-4-methoxyphenyl)-2-oxopyrrolidin-3-yl]-3-(4-ethylphenyl)urea], 8.64.
For `COc1cc(F)c([C@@H]2CNC(=O)[C@H]2NC(=O)Nc2cccc(C#N)c2)c(F)c1` (relative stereo) [Example 7-12, (−)-1-(3-cyanophenyl)-3-[(3S*,4R*)-4-(2,6-difluoro-4-methoxyphenyl)-2-oxopyrrolidin-3-yl]urea] the value was 8.41; for `COc1cc(F)c([C@@H]2CNC(=O)[C@H]2NC(=O)Nc2ccc(Cl)s2)c(F)c1` (relative stereo) [Example 8-1, (−)-1-(5-Chlorothiophen-2-yl)-3-[(3S*,4R*)-4-(2,6-difluoro-4-methoxyphenyl)-2-oxopyrrolidin-3-yl]urea], 9.54.
With `COc1cnc([C@@H]2CNC(=O)[C@H]2NC(=O)Nc2ccc(Cl)s2)c(F)c1` (relative stereo) [Example 8-2, (−)-1-(5-chlorothiophen-2-yl)-3-[(3S*,4R*)-4-(3-fluoro-5-methoxypyridin-2-yl)-2-oxopyrrolidin-3-yl]urea], the pEC50 was 8.80.
For `COc1ccc([C@@H]2CN(C(C)(C)CO)C(=O)[C@H]2NC(=O)Nc2ccc(F)cc2)cc1` (relative stereo) [Example 12-4, (−)-1-(4-fluorophenyl)-3-[(3S*,4R*)-1-(1-hydroxy-2-methylpropan-2-yl)-4-(4-methoxyphenyl)-2-oxopyrrolidin-3-yl]urea] the value was 10.30; for `COc1cc(F)c([C@@H]2CN(CC(=O)O)C(=O)[C@H]2NC(=O)Nc2ccc(F)cc2)c(F)c1` (relative stereo) [Example 16-2, (−)-2-{(3S*,4R*)-4-(2,6-difluoro-4-methoxyphenyl)-3-[3-(4-fluorophenyl)ureido]-2-oxopyrrolidin-1-yl}acetic acid], 9.31.
The value for `O=C(O)CN1C[C@@H](c2cc3c(cc2F)OCC3)[C@H](NC(=O)Nc2ccc(F)cc2)C1=O` (relative stereo) [Example 16-3, (−)-2-{(3S*,4R*)-4-(6-fluoro-2,3-dihydrobenzofuran-5-yl)-3-[3-(4-fluorophenyl)ureido]-2-oxopyrrolidin-1-yl}acetic acid] was 9.12.
The value for `CNC(=O)CN1C[C@@H](c2ccc(OC)cc2)[C@H](NC(=O)Nc2ccc(F)cc2)C1=O` (relative stereo) [Example 17-1, (−)-2-{(3S*,4R*)-3-[3-(4-Fluorophenyl)ureido]-4-(4-methoxyphenyl)-2-oxopyrrolidin-1-yl}-N-methylacetamide] was 9.96; that for `CNC(=O)CN1C[C@@H](c2c(F)cc(OC)cc2F)[C@H](NC(=O)Nc2ccc(F)cc2)C1=O` (relative stereo) [Example 17-2, (−)-2-{(3S*,4R*)-4-(2,6-difluoro-4-methoxyphenyl)-3-[3-(4-fluorophenyl)ureido]-2-oxopyrrolidin-1-yl}-N-methylacetamide] was 10.15.
For `NC(=O)CN1C[C@@H](c2cc3c(cc2F)OCC3)[C@H](NC(=O)Nc2ccc(F)cc2)C1=O` (relative stereo) [Example 17-3, (−)-2-{(3S*,4R*)-4-(6-fluoro-2,3-dihydrobenzofuran-5-yl)-3-[3-(4-fluorophenyl)ureido]-2-oxopyrrolidin-1-yl}acetamide], the negative-log EC50 (pEC50) is 9.54.
For `CC(C)(C(=O)O)N1C[C@@H](c2cc3c(cc2F)OCC3)[C@H](NC(=O)Nc2ccc(F)cc2)C1=O` (relative stereo) [Example 22-2, (−)-2-{(3S*,4R*)-4-(6-Fluoro-2,3-dihydrobenzofuran-5-yl)-3-[3-(4-fluorophenyl)ureido]-2-oxopyrrolidin-1-yl}-2-methylpropanoic acid] the value was 9.42; for `CNC(=O)C(C)(C)N1C[C@@H](c2ccc(OC)cc2)[C@H](NC(=O)Nc2ccc(F)cc2)C1=O` (relative stereo) [Example 23-1, (−)-2-{(3S*,4R*)-3-[3-(4-Fluorophenyl)ureido]-4-(4-methoxyphenyl)-2-oxopyrrolidin-1-yl}-N,2-dimethylpropionamide], 10.05; for `COc1cc(F)c([C@@H]2CN(C)C(=O)[C@H]2NC(=O)Nc2ccc(F)cc2)c(F)c1` (relative stereo) [Example 24-1, (−)-1-[(3S*,4R*)-4-(2,6-Difluoro-4-methoxyphenyl)-1-methyl-2-oxopyrrolidin-3-yl]-3-(4-fluorophenyl)urea], 10.05.
The value for `COc1cc(F)c([C@@H]2CN(C)C(=O)[C@H]2NC(=O)Nc2ccc(C#N)cc2)c(F)c1` (relative stereo) [Example 24-3] was 8.96.
For `COc1cc(F)c([C@@H]2CN(C)C(=O)[C@H]2NC(=O)Nc2ccc(Cl)nc2)c(F)c1` (relative stereo) [Example 24-4, (−)-1-(6-chloropyridin-3-yl)-3-[(3S*,4R*)-4-(2,6-difluoro-4-methoxyphenyl)-1-methyl-2-oxopyrrolidin-3-yl]urea], the pEC50 was 9.09.
The value for `COc1cc(F)c([C@@H]2CN(C)C(=O)[C@H]2NC(=O)Nc2cc3ccccc3s2)c(F)c1` (relative stereo) [Example 24-5, (−)-1-(benzo[b]thiophen-2-yl)-3-[(3S*,4R*)-4-(2,6-difluoro-4-methoxyphenyl)-1-methyl-2-oxopyrrolidin-3-yl]urea] was 8.80; that for `COc1cc(F)c([C@@H]2CN(CCO)C(=O)[C@H]2NC(=O)Nc2ccccc2)c(F)c1` (relative stereo) [Example 24-6, (−)-1-[(3S*,4R*)-4-(2,6-difluoro-4-methoxyphenyl)-1-(2-hydroxyethyl)-2-oxopyrrolidin-3-yl]-3-phenylurea] was 9.40.
